Experimental data reported in patent US20250129031A1, “1,2,3-TRIAZOLE CARBONYL SULFONYLAMIDE COMPOUNDS AND USE THEREOF” (PI INDUSTRIES LTD., priority 2022, published 2025).

Tested on: Meloidogyne incognita
Assay: Meloidogyne incognita test: gall rating on cucumber plants in pots after soil application
Assay type: in vivo
Parameters: key: 0: no galls; 1: very few small galls; 2: numerous small galls; 3: numerous small galls of which some are grown together; 4: numerous small and some big galls; 25% of roots severely galled; 6: 50% of roots severely galled; 75% of roots severely galled; 8: no healthy roots but plant is still green; 9: roots rotting and plant dying; 10: plant and roots dead
Settings: 1000 ppm applied to soil inoculated with 5000 eggs & J2s; cucumber seedlings; rated 30 days after application; 0-10 scale (Zeck 1971); untreated check up to 8
Experimental: Meloidogyne incognita Test:
The trial pots were filled with soil containing a mixture of sand:soil:cocopeat in a ratio of 1:1:1. To the soil of each pot 5 mL of a nematode suspension (Meloidogyne incognita, mix of 5000 eggs & J2s) was added. One hour later the respective test compound at the stated concentration was applied to each pot. 10 days old cucumber seedlings were transplanted into the pots one day after the application. The cucumber plants were allowed to grow at a temperature of 27° C. under greenhouse conditions. The evaluation of the gall rating was recorded 30 days after the application. The plants were carefully uprooted and the roots were thoroughly washed. The gall rating was done on a 0-10 scale as described by Zeck (1971) and shown below: • 0=no galls • 1=very few small galls • 2=numerous small galls • 3=numerous small galls of which some are grown together • 4=numerous small and some big galls • 5=25% of roots severely galled • 6=50% of roots severely galled • 7=75% of roots severely galled • 8=no healthy roots but plant is still green • 9=roots rotting and plant dying • 10=plant and roots dead

Row | Compound | gall rating scale
1 | Cc1c(C(=O)NS(=O)(=O)c2cc(Cl)ccc2Cl)nnn1-c1ccc(C#N)cc1F [Compound 410] | 4
2 | Cc1c(C(=O)NS(=O)(=O)c2cc(Cl)ccc2Cl)nnn1-c1ccc(C#N)cc1Cl [Compound 316, 1-(2-chloro-4-cyanophenyl)-N-((2,5-dichlorophenyl)sulfonyl)-5-methyl-1H-1,2,3-triazole-4-carboxamide] | 4
3 | Cc1c(C(=O)NS(=O)(=O)c2ccc(F)cc2F)nnn1-c1ccc(Cl)cc1Cl [Compound 279, 1-(2,4-dichlorophenyl)-N-((2,4-difluorophenyl)sulfonyl)-5-methyl-1H-1,2,3-triazole-4-carboxamide] | 4
4 | Cc1c(C(=O)NS(=O)(=O)c2cc(C(F)(F)F)ccc2Cl)nnn1-c1ccc(F)cc1Cl [Compound 252, 1-(2-chloro-4-fluorophenyl)-N-((2-chloro-5-(trifluoromethyl)phenyl)sulfonyl)-5-methyl-1H-1,2,3-triazole-4-carboxamide] | 4
5 | Cc1c(C(=O)NS(=O)(=O)c2cc(C(F)(F)F)ccc2Cl)nnn1-c1cc(Cl)cc(Cl)c1 [Compound 253] | 4
6 | Cc1c(C(=O)NS(=O)(=O)c2cc(C(F)(F)F)ccc2C(F)(F)F)nnn1-c1ccc(Cl)cc1F [Compound 441] | 4
7 | O=C(NS(=O)(=O)c1c(F)cccc1F)c1nnn(-c2ccc(Cl)cc2C(F)(F)F)c1C(F)(F)F [Compound 52] | 4
8 | Cc1c(C(=O)NS(=O)(=O)c2cc(C(F)(F)F)ccc2Cl)nnn1-c1ccc(Cl)cc1F [Compound 446] | 4
9 | Cc1c(C(=O)NS(=O)(=O)c2cc(C(F)(F)F)ccc2Br)nnn1-c1ccc(Cl)cc1F [Compound 432] | 4
10 | Cc1c(C(=O)NS(=O)(=O)c2ccccc2C(F)(F)F)nnn1-c1cc(Cl)cc(Cl)c1 [Compound 254] | 4
11 | CCc1c(C(=O)NS(=O)(=O)c2cc(C(F)(F)F)ccc2Cl)nnn1-c1ccc(Cl)cc1Cl [Compound 231] | 4
12 | Cc1c(C(=O)NS(=O)(=O)c2ccccc2Cl)nnn1-c1ccc(OC(F)F)cc1Cl [Compound 671] | 4
13 | O=C(NS(=O)(=O)c1ccccc1)c1nnn(-c2cc(Cl)cc(Cl)c2)c1C(F)(F)F [Compound 35, 1-(3,5-dichlorophenyl)-N-(phenylsulfonyl)-5-(trifluoromethyl)-1H-1,2,3-triazole-4-carboxamide] | 4
14 | O=C(NS(=O)(=O)c1ccc(Cl)cc1Cl)c1nnn(-c2cc(Cl)c(Cl)cc2Cl)c1C(F)(F)F [Compound 709] | 4
15 | COc1ccc(Cl)cc1S(=O)(=O)NC(=O)c1nnn(-c2ccc(OC(F)(F)F)cc2Cl)c1C [Compound 586] | 4
16 | Cc1c(C(=O)NS(=O)(=O)c2ccccc2F)nnn1-c1ccc(Cl)cc1Cl [Compound 278, 1-(2,4-dichlorophenyl)-N-((2-fluorophenyl)sulfonyl)-5-methyl-1H-1,2,3-triazole-4-carboxamide] | 4
17 | Cc1c(C(=O)NS(=O)(=O)c2cc(C(F)(F)F)ccc2Br)nnn1-c1ccc(C#N)cc1Cl [Compound 458] | 4
18 | Cc1c(C(=O)NS(=O)(=O)c2ccccc2Cl)nnn1-c1ccc(F)cc1F [Compound 689] | 4
19 | N#Cc1ccc(-n2nnc(C(=O)NS(=O)(=O)c3cc(C(F)(F)F)ccc3C(F)(F)F)c2C(F)(F)F)c(Cl)c1 [Compound 390, N-((2,5-bis(trifluoromethyl)phenyl)sulfonyl)-1-(2-chloro-4-cyanophenyl)-5-(trifluoromethyl)-1H-1,2,3-triazole-4-carboxamide] | 4
20 | Cc1c(C(=O)NS(=O)(=O)c2ccccc2Cl)nnn1-c1cc(Cl)cc(Cl)c1 [Compound 7, N-((2-chlorophenyl)sulfonyl)-1-(3,5-dichlorophenyl)-5-methyl-1H-1,2,3-triazole-4-carboxamide] | 4
21 | O=C(NS(=O)(=O)c1cc(C(F)(F)F)ccc1Cl)c1nnn(-c2ccc(OC(F)(F)F)cc2Cl)c1C(F)(F)F [Compound 171, 1-(2-chloro-4-(trifluoromethoxy)phenyl)-N-((2-chloro-5-(trifluoromethyl)phenyl)sulfonyl)-5-(trifluoromethyl)-1H-1,2,3-triazole-4-carboxamide] | 4
22 | Cc1c(C(=O)NS(=O)(=O)c2cc(Cl)ccc2F)nnn1-c1ccc(F)cc1F [Compound 691] | 4
23 | Cc1c(C(=O)NS(=O)(=O)c2ccccc2Cl)nnn1-c1ccc(C#N)cc1Cl [Compound 272] | 4
24 | Cc1c(C(=O)NS(=O)(=O)c2ccccc2C(F)(F)F)nnn1-c1ccc(F)cc1F [Compound 687] | 4

Row | Compound | gall rating scale
25 | COc1ccc(Cl)c(S(=O)(=O)NC(=O)c2nnn(-c3ccc(Cl)cc3C(F)(F)F)c2C(F)(F)F)c1 [Compound 57] | 4
26 | O=C(NS(=O)(=O)c1cc(C(F)(F)F)ccc1Cl)c1nnn(-c2ccc(Cl)cc2Cl)c1C(F)(F)F [Compound 210] | 4
27 | Cc1c(C(=O)NS(=O)(=O)c2ccccc2C(F)(F)F)nnn1-c1cc(Cl)ccc1Cl [Compound 259, 1-(2,5-dichlorophenyl)-5-methyl-N-((2-(trifluoromethyl)phenyl)sulfonyl)-1H-1,2,3-triazole-4-carboxamide] | 4
28 | Cc1c(C(=O)NS(=O)(=O)c2ccc(F)cc2F)nnn1-c1ccc(C#N)cc1F [Compound 413] | 4
29 | Cc1c(C(=O)NS(=O)(=O)c2c(F)cc(F)cc2F)nnn1-c1ccc(Cl)cc1Cl [Compound 281, 1-(2,4-dichlorophenyl)-5-methyl-N-((2,4,6-trifluorophenyl)sulfonyl)-1H-1,2,3-triazole-4-carboxamide] | 4
30 | Cc1c(C(=O)NS(=O)(=O)c2ccc(Cl)c(F)c2)nnn1-c1ccc(C#N)cc1Cl [Compound 499] | 4
31 | Cc1c(C(=O)NS(=O)(=O)c2ccccc2C(F)(F)F)nnn1-c1ccc(OC(F)F)cc1Cl [Compound 669] | 4
32 | Cc1c(C(=O)NS(=O)(=O)c2ccccc2F)nnn1-c1ccc(F)cc1Cl [Compound 246] | 4
33 | Cc1cc(S(=O)(=O)NC(=O)c2nnn(-c3ccc(C#N)cc3Cl)c2C)c(C)cc1Cl [Compound 460] | 4
34 | O=C(NS(=O)(=O)c1ccccc1OC(F)(F)F)c1nnn(-c2cc(Cl)ccc2Cl)c1C(F)(F)F [Compound 370, 1-(2,5-dichlorophenyl)-N-((2-(trifluoromethoxy)phenyl)sulfonyl)-5-(trifluoromethyl)-1H-1,2,3-triazole-4-carboxamide] | 4
35 | O=C(NS(=O)(=O)c1cc(Cl)ccc1Cl)c1nnn(-c2cc(Cl)ccc2Cl)c1C(F)(F)F [Compound 371, 1-(2,5-dichlorophenyl)-N-((2,5-dichlorophenyl)sulfonyl)-5-(trifluoromethyl)-1H-1,2,3-triazole-4-carboxamide] | 4
36 | COc1ccc(Cl)c(S(=O)(=O)NC(=O)c2nnn(-c3ccc(Cl)cc3F)c2C(F)(F)F)c1 [Compound 630] | 4
37 | N#Cc1ccc(-n2nnc(C(=O)NS(=O)(=O)c3cc(Cl)c(F)cc3F)c2C(F)(F)F)c(F)c1 [Compound 610, N-((5-chloro-2,4-difluorophenyl)sulfonyl)-1-(4-cyano-2-fluorophenyl)-5-(trifluoromethyl)-1H-1,2,3-triazole-4-carboxamide] | 4
38 | COc1ccc(Cl)c(S(=O)(=O)NC(=O)c2nnn(-c3ccc(F)cc3Cl)c2C)c1 [Compound 242] | 4
39 | O=C(NS(=O)(=O)c1ccccc1C(F)(F)F)c1nnn(-c2cc(Cl)ccc2Cl)c1C(F)(F)F [Compound 335, 1-(2,5-dichlorophenyl)-5-(trifluoromethyl)-N-((2-(trifluoromethyl)phenyl)sulfonyl)-1H-1,2,3-triazole-4-carboxamide] | 4
40 | CCc1c(C(=O)NS(=O)(=O)c2cc(C)ccc2C)nnn1-c1ccc(OC(F)(F)F)cc1Cl [Compound 337, 1-(2-chloro-4-(trifluoromethoxy)phenyl)-N-((2,5-dimethylphenyl)sulfonyl)-5-ethyl-1H-1,2,3-triazole-4-carboxamide] | 4
41 | COc1ccc(Cl)c(S(=O)(=O)NC(=O)c2nnn(-c3ccc(OC(F)F)cc3Cl)c2C)c1 [Compound 664] | 4
42 | Cc1ccc(F)cc1S(=O)(=O)NC(=O)c1nnn(-c2ccc(OC(F)(F)F)cc2Cl)c1C(F)(F)F [Compound 597] | 4
43 | Cc1ccc(C)c(S(=O)(=O)NC(=O)c2nnn(-c3ccc(C(F)(F)F)cc3Cl)c2C)c1 [Compound 670] | 4
44 | Cc1c(C(=O)NS(=O)(=O)c2cc(C(F)(F)F)ccc2C(F)(F)F)nnn1-c1ccc(F)cc1F [Compound 690] | 4
45 | Cc1c(C(=O)NS(=O)(=O)c2c(F)cc(F)cc2F)nnn1-c1ccc(OC(F)F)cc1Cl [Compound 675] | 4
46 | O=C(NS(=O)(=O)c1ccccc1C(F)(F)F)c1nnn(-c2ccc(Cl)cc2Cl)c1C(F)(F)F [Compound 209] | 4
47 | Cc1c(C(=O)NS(=O)(=O)c2ccccc2C(F)(F)F)nnn1-c1cc(Cl)c(Cl)cc1Cl [Compound 657] | 4
